Measured values published in US7615361B2, “Toxicity screening methods” (Ceetox, Inc., priority 2006, dated 2009).

Experiments:
BAX = experiment: bDNA analysis of mRNA in rat cardiomyocytes; format: cell-based; conditions: after 1 hr at 10 μM
Method: (§1) Bcl2 is often induced in response to BAX a protein that promotes apoptosis.
(§2) […] Plates were mixed using a DPC 5 Micromix plate shaker at 37° C. for 15-30 minutes to ensure complete lysis of cells. Cell lysis was confirmed using a Nikon inverted microscope. Plates were stored at −80° C. until further analysis.
(§3) bDNA Analysis (Day 1): All solutions were prepared fresh on the day of analysis. Quantigene® bDNA kit components were brought to room temperature prior to use. Chemicals not supplied by Genospectra were obtained from Sigma-Aldrich.
(§4) On the day of analysis, Target Probe Sets were prepared for probe gene sets by adding 25 μL of each probe set component (CE, LE, BL) to 425 μL stock lysis solution using the following probe set concentrations: CE (50 fmol/μL), LE (200 fmol/μL), BL (100 fmol/μL).
(§5) Cell lysis plates were removed from freezer storage and thawed. […] Next, 10 μL of the appropriate Target Probe Set (PS2) was added to each appropriate well of the Capture Plate. Plates were tightly sealed using a plate sealer and incubated at 53° C. for 16-20 hr (overnight).
(§6) bDNA Analysis (Day 2): Wash buffer was prepared in ultra-pure water using 0.1×Saline-Sodium Citrate (SSC) and 0.03% Lithium Lauryl Sulfate (LLS). Amplifier working solution was prepared by adding 10 μL Amplifier to 10 mL Amplifier Diluent per plate.
(§7) Plates were removed from incubator and washed three times with 300 μL wash buffer. […]

Bcl2 = experiment: bDNA analysis of mRNA in rat cardiomyocytes; format: cell-based; conditions: after 6 hr at 10 μM
Method: as §1, §2, §3, §4, §5, §6, §7

rat cardiomyocytes = experiment: Intracellular total glutathione (GSH); format: cell-based; conditions: rat cardiomyocytes, after 3 hr
Method in brief: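 Intracellular total glutathione serves as an oxidative-stress marker in neonatal rat cardiomyocytes exposed to compound in vitro. Cells were harvested for biochemical analysis, and values are means of each exposure group (n=3-7).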

NRK cells = experiment: Caspase 3 activity (apoptosis); format: cell-based, rat
Method: Caspase 3 Procedure: Caspase 3 activity was determined using a caspase substrate (DEVD, Asp-Glu-Val-Asp) labeled with a fluorescent molecule, 7-Amino4-methylcoumarin (AMC). Caspase 3 cleaves the tetrapeptide between D and AMC, thus releasing the fluorogenic […] AMC. Following the test article exposure to cells in 96-well plates, medium was aspirated from plates and PBS added to each well. Plates were stored at −80° C. to lyse cells and store samples until further analysis. On the day of analysis, plates were removed from freezer and thawed. Caspase buffer with fluorescent substrate was added to each well and incubated at room temperature for 1 hr. AMC release was measured in a spectrofluorometer at an excitation wavelength of 360 nm and an emission wavelength of 460 nm. Values are expressed as relative fluorescent units (RFU).
Caspase Activity: After sample plates were completely thawed, the caspase substrate buffer mix was added to each plate. Plates were incubated at room temperature for 1hr, shielded from light. Plates were read using a in a spectrofluorometer at an excitation wavelength of 360 nm and an emission wavelength of 460 nm. Values were expressed as relative fluorescent units (RFU).
The key to the maximal response data can be found below Table 2.
The third experiment was done to evaluate the specificity and selectivity of the test compound in another non-tumor cell that was derived from normal rat kidney tissue.

| SMILES | BAX increase (BAX) [fold] | Bcl2 induction (Bcl2) [fold] | cellular GSH depleted (rat cardiomyocytes) | Caspase 3 Activity (Index/Dose): Dose (NRK cells; 6 HR) [µM] | Caspase 3 Activity (Index/Dose): Index (NRK cells; 6 HR) | Caspase 3 Activity (Index/Dose): Dose (NRK cells; 24 HR) [µM] | Caspase 3 Activity (Index/Dose): Index (NRK cells; 24 HR) |
| --- | --- | --- | --- | --- | --- | --- | --- |
| COc1cccc2c1C(=O)c1c(O)c3c(c(O)c1C2=O)C[C@@](O)(C(=O)CO)C[C@@H]3O[C@H]1C[C@H](N)[C@H](O)[C@H](C)O1 [ADRIAMYCIN, Adriamycin] | 3 | 6 | More than 90% | – | – | – | – |
| CC[C@@]1(O)C(=O)OCc2c1cc1n(c2=O)Cc2cc3ccccc3nc2-1 [CAMPTOTHECIN, Camptothecin] | – | – | – | 100 | 3 (40-60 = 3) | 300 | 10 (180-200 = 10) |
